Results: US7531312B2, “Simplified biological evaluation method of natural and artificial chemicals by using DNA injury index and apparatus therefor” (TAS Project Co., Ltd., priority 2000, dated 2009)
“Also recorded” adds a separate entry of the source.

Experiments:
[1] = system: 2′-deoxyguanosine (dG); experiment: 8OHdG produced from added dG, standing at room temperature or UV irradiation (Examples 1-7); conditions: for 8OHdG concentration, UV irradiation 60 minutes: ultrapure water 0.392; for 8OHdG concentration, UV irradiation 90 minutes: ultrapure water 0.901; for 8OHdG concentration, UV irradiation 120 minutes: ultrapure water 1.183; for evaluation in words: oxidation induction or antioxidant ability toward dG: conclusions of Examples 2-7;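 as to all read-outs here: Cell-free test: dG in test solution, held at room temperature or exposed to 254 nm UV, then 8OHdG quantified by HPLC with electrochemical detection, compared against dG in ultrapure water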
Method: Separately, the amount of 8OHdG after an ultrapure water solution of dG is left to stand under the same conditions as above for a predetermined time is measured (this value is defined as B). If A is greater than B, the test substance is evaluated to have oxidation induction ability and conversely if A is smaller than B, the test substance is evaluated to have antioxidant ability. In either case, it is judged that the greater the difference is, the greater degree of oxidation induction ability or antioxidant capability the test substance has.
Then, 20 μl of 200 μg/ml dG (dissolved in ultrapure water) was added to each well and one of the plates was left to stand as it was at room temperature for 90 minutes and the other plate was irradiated with UV light (254 nm, 860 μW/cm^2) for 90 minutes in a UV light irradiation box. […] Subsequently, nucleosides in the both were quantified by use of the UV light absorption analyzer connected to the HPLC and the electrochemical detector.
Solutions of predetermined concentrations of vitamin C (VC), vitamin E (VE), catechin (Cate) and tannic acid (Tan) were prepared and 180 μl portions were injected into each well of two 99-well plastic plates. Then, 20 μl of 200 μg/ml dG (dissolved in ultrapure water) was added to each well and one of the plates was left to stand as it was at room temperature for 90 minutes and the other plate was irradiated with UV light (254 nm, 860 μW/cm^2) for 90 minutes in a UV light irradiation box.
Then, 20 μl of 200 μg/ml dG (dissolved in ultrapure water) was added to each well and one of the plates was left to stand as it was at room temperature for 90 minutes and another plate was left to stand similarly at room temperature for 24 hours. The remaining three plates were irradiated with UV light (254 nm, 860 μW/cm^2) for 60 minutes, 90 minutes and 120 minutes, respectively, in a UV light irradiation box.
Solutions of predetermined concentrations of glucose (Glu), raffinose (Raffi) and sucrose (Suc) were prepared and 180 μl portions thereof were injected into each well of four 99-well plastic plates. Then, 20 μl of 200 μg/ml dG (dissolved in ultrapure water) was added to each well and one of the plates was left to stand as it was at room temperature for 90 minutes. The remaining three plates were irradiated with UV light (254 nm, 860 μW/cm^2) for 60 minutes, 90 minutes and 120 minutes, respectively, in a UV light irradiation box.
Then, 20 μl of 200 μg/ml dG (dissolved in ultrapure water) was added to each well and one of the plates was left to stand as it was at room temperature for 90 minutes and the other plate was irradiated with UV light (254 nm, 860 μW/cm^2) for 90 minutes in a UV light irradiation box.
Solutions of various concentrations of uric acid (dissolving fluid: distilled water+0.025% FBS) were prepared and 180 μl portions thereof were injected into each well of two 99-well plastic plates. Then, 20 μl of 200 μg/ml dG (dissolved in ultrapure water) was added to each well and one of the plates was left to stand as it was at room temperature for 90 minutes and the other plate was irradiated with UV light (254 nm, 860 μW/cm^2) for 90 minutes in a UV light irradiation box.

[2] = system: 2′-deoxyguanosine (dG); experiment: 8OHdG produced from dG with test substance and coexisting bisphenol A, standing or UV (Example 9); type: biochemical; conditions: for effect on 8OHdG with BPA and UV light irradiation: Example 9
Method: 170 μl portions of ultrapure water and predetermined concentrations of vitamin C (VC), vitamin E (VE), and glucose (Glu) as test substance were added to each well of two […] plastic plates and, as additional solution, 20 μl of ultrapure water or predetermined concentration of bisphenol A (BPA) were injected into each well.

[3] = test substance 0.00001%, additional solution BPA (50 ppm), BPA alone 11.58
[4] = test substance 0.0001%, additional solution BPA (50 ppm), BPA alone 11.58
[5] = test substance 0.001%, additional solution BPA (50 ppm), BPA alone 0.22
[6] = test substance 0.001%, additional solution BPA (50 ppm), BPA alone 11.58
[7] = test substance 0.001%, additional solution ultrapure water
[8] = 1 μg/ml, Table 5, ultrapure water 0.219
[9] = 1 μg/ml, Table 5, ultrapure water 0.422
[10] = 10 μg/ml, Table 5, ultrapure water 0.219
[11] = 10 μg/ml, Table 5, ultrapure water 0.422
[12] = 100 μg/ml, Table 5, ultrapure water 0.219
[13] = 100 μg/ml, Table 5, ultrapure water 0.422
[14] = 1 mg/ml, Table 5, ultrapure water 0.219
[15] = 1 mg/ml, Table 5, ultrapure water 0.422
[16] = 1 μg/ml, Table 2, distilled water 0.15
[17] = 10 μg/ml, Table 2, distilled water 0.15

Compound: OC[C@H]1O[C@@](CO)(O[C@H]2O[C@H](CO)[C@@H](O)[C@H](O)[C@H]2O)[C@@H](O)[C@@H]1O [Suc, sucrose]
- 8OHdG concentration, 90 Minutes' standing ([1]; 0.1 μg/ml, Table 4, ultrapure water 0.195): 0.235 ng/mL
- 8OHdG concentration, UV irradiation 60 minutes ([1]; 0.1 μg/ml, Table 4): 0.299 ng/mL
- 8OHdG concentration, UV irradiation 90 minutes ([1]; 0.1 μg/ml, Table 4): 0.756 ng/mL
- 8OHdG concentration, UV irradiation 120 minutes ([1]; 0.1 μg/ml, Table 4): 1.073 ng/mL
- 8OHdG concentration, 90 Minutes' standing ([1]; 1 μg/ml, Table 4, ultrapure water 0.195): 0.185 ng/mL
- 8OHdG concentration, UV irradiation 60 minutes ([1]; 1 μg/ml, Table 4): 0.358 ng/mL
- 8OHdG concentration, UV irradiation 90 minutes ([1]; 1 μg/ml, Table 4): 0.708 ng/mL
- 8OHdG concentration, UV irradiation 120 minutes ([1]; 1 μg/ml, Table 4): 1.143 ng/mL
- 8OHdG concentration, 90 Minutes' standing ([1]; 10 μg/ml, Table 4, ultrapure water 0.195): 0.235 ng/mL
- 8OHdG concentration, UV irradiation 60 minutes ([1]; 10 μg/ml, Table 4): 0.333 ng/mL
- 8OHdG concentration, UV irradiation 90 minutes ([1]; 10 μg/ml, Table 4): 0.690 ng/mL
- 8OHdG concentration, UV irradiation 120 minutes ([1]; 10 μg/ml, Table 4): 1.279 ng/mL
- 8OHdG concentration, 90 Minutes' standing ([1]; 100 μg/ml, Table 4, ultrapure water 0.195): 0.280 ng/mL
- 8OHdG concentration, UV irradiation 90 minutes ([1]; 100 μg/ml, Table 4): 0.379 ng/mL
- 8OHdG concentration, UV irradiation 120 minutes ([1]; 100 μg/ml, Table 4): 0.648 ng/mL
- 8OHdG concentration, 90 Minutes' standing ([1]; 1 mg/ml, Table 4, ultrapure water 0.195): 0.300 ng/mL
- 8OHdG concentration, UV irradiation 60 minutes ([1]; 1 mg/ml, Table 4): 0.127 ng/mL
- 8OHdG concentration, UV irradiation 90 minutes ([1]; 1 mg/ml, Table 4): 0.309 ng/mL
- 8OHdG concentration, UV irradiation 120 minutes ([1]; 1 mg/ml, Table 4): 0.364 ng/mL
- evaluation in words: oxidation induction or antioxidant ability toward dG [1]: Glu>Raffi≈Suc; also recorded: antioxidant ability as potent as that of Raffi

Compound: Oc1ccc(/C=C/c2cc(O)cc(O)c2)cc1 [RVT, Resveratol]
- 8OHdG concentration, 90 Minutes' UV irradiation ([1]; 0.0005 ppm, Table 1, ultrapure water 0.529): 1.026 ng/mL
- 8OHdG concentration, 90 Minutes' UV irradiation ([1]; 0.005 ppm, Table 1, ultrapure water 0.529): 0.690 ng/mL
- 8OHdG concentration, 90 Minutes' UV irradiation ([1]; 0.05 ppm, Table 1, ultrapure water 0.529): 0.571 ng/mL
- 8OHdG concentration, 90 Minutes' UV irradiation ([1]; 0.5 ppm, Table 1, ultrapure water 0.529): 1.378 ng/mL
- 8OHdG concentration, 90 Minutes' UV irradiation ([1]; 5 ppm, Table 1, ultrapure water 0.529): 5.582 ng/mL
- concentration at which oxidation injury activity due to UV light is elevated (harmfulness increased) ([1]; Example 1, 90 minutes UV): ≥ 0.5 ppm

Compound: O=C1O[C@H]([C@@H](O)CO)C(O)=C1O [VC, ascorbic acid]
- effect on 8OHdG with BPA and UV light irradiation [2]: does not cancel the induction of 8OHdG by BPA
- 8OHdG concentration, 90 Minutes' UV irradiation [2, 3]: 14.96 ng/mL
- 8OHdG concentration, 90 Minutes' UV irradiation [2, 4]: 15.95 ng/mL
- 8OHdG concentration, 90 Minutes' standing [2, 5]: 1.51 ng/mL
- 8OHdG concentration, 90 Minutes' UV irradiation [2, 6]: 12.53 ng/mL
- 8OHdG concentration, 90 Minutes' UV irradiation [2, 7]: 5.75 ng/mL
- 8OHdG concentration, 90 Minutes' standing [2, 7]: 16.3 ng/mL
- 8OHdG concentration, 90 Minutes' standing ([1]; 0.00001%, Table 2, distilled water 0.15): 0.44 ng/mL
- 8OHdG concentration, 90 Minutes' UV irradiation ([1]; 0.00001%, Table 2, distilled water 1.23): 0.46 ng/mL
- 8OHdG concentration, 90 Minutes' standing ([1]; 0.0001%, Table 2, distilled water 0.15): 0.63 ng/mL
- 8OHdG concentration, 90 Minutes' UV irradiation ([1]; 0.0001%, Table 2, distilled water 1.23): 1.51 ng/mL
- 8OHdG concentration, 90 Minutes' standing ([1]; 0.001%, Table 2, distilled water 0.15): 6.04 ng/mL
- 8OHdG concentration, 90 Minutes' UV irradiation ([1]; 0.001%, Table 2, distilled water 1.23): 38.36 ng/mL
- evaluation in words: oxidation induction or antioxidant ability toward dG [1]: very strong oxidation inducing substance
- 8OHdG induction on storage ([1]; stored for a long period added to a dG solution in contact with air): a large amount of 8OHdG was induced

Compound: NC(=O)NCCC[C@H](N)C(=O)O [Cit, 1-citrulline]
- 8OHdG concentration, 90 Minutes' standing [1, 8]: 0.184 ng/mL
- 8OHdG concentration, 90 Minutes' UV irradiation [1, 9]: 0.332 ng/mL
- 8OHdG concentration, 90 Minutes' standing [1, 10]: 0.179 ng/mL
- 8OHdG concentration, 90 Minutes' UV irradiation [1, 11]: 0.305 ng/mL
- 8OHdG concentration, 90 Minutes' standing [1, 12]: 0.120 ng/mL
- 8OHdG concentration, 90 Minutes' UV irradiation [1, 13]: 0.225 ng/mL
- 8OHdG concentration, 90 Minutes' standing [1, 14]: 0.156 ng/mL
- 8OHdG concentration, 90 Minutes' UV irradiation [1, 15]: 0.125 ng/mL
- evaluation in words: oxidation induction or antioxidant ability toward dG [1]: exhibited antioxidant ability

Compound: Cc1c(C)c2c(c(C)c1O)CC[C@@](C)(CCC[C@H](C)CCC[C@H](C)CCCC(C)C)O2 [VE, vitamin E]
- effect on 8OHdG with BPA and UV light irradiation [2]: significantly inhibit the increase in 8OHdG
- 8OHdG concentration, 90 Minutes' UV irradiation [2, 3]: 15.43 ng/mL
- 8OHdG concentration, 90 Minutes' UV irradiation [2, 4]: 8.27 ng/mL
- 8OHdG concentration, 90 Minutes' standing [2, 5]: 0.29 ng/mL
- 8OHdG concentration, 90 Minutes' UV irradiation [2, 6]: 3.79 ng/mL
- 8OHdG concentration, 90 Minutes' UV irradiation [2, 7]: 0.28 ng/mL
- 8OHdG concentration, 90 Minutes' standing [2, 7]: 0.18 ng/mL
- 8OHdG concentration, 90 Minutes' standing ([1]; 0.0005%, Table 2, distilled water 0.15): 0.49 ng/mL
- 8OHdG concentration, 90 Minutes' UV irradiation ([1]; 0.0005%, Table 2, distilled water 1.23): 0.30 ng/mL
- 8OHdG concentration, 90 Minutes' standing ([1]; 0.005%, Table 2, distilled water 0.15): 0.45 ng/mL
- 8OHdG concentration, 90 Minutes' UV irradiation ([1]; 0.005%, Table 2, distilled water 1.23): 0.18 ng/mL
- 8OHdG concentration, 90 Minutes' standing ([1]; 0.05%, Table 2, distilled water 0.15): 0.44 ng/mL
- 8OHdG concentration, 90 Minutes' UV irradiation ([1]; 0.05%, Table 2, distilled water 1.23): 0.42 ng/mL
- evaluation in words: oxidation induction or antioxidant ability toward dG [1]: very stable antioxidant

Compound: catechin
- 8OHdG concentration, 90 Minutes' standing [1, 16]: 9.07 ng/mL
- 8OHdG concentration, 90 Minutes' standing [1, 17]: 133.71 ng/mL
- evaluation in words: oxidation induction or antioxidant ability toward dG [1]: induces 8OHdG very strongly

Compound: N=C(N)NCCC[C@H](N)C(=O)O [Arg, 1-arginine]
- 8OHdG concentration, 90 Minutes' standing [1, 8]: 0.186 ng/mL
- 8OHdG concentration, 90 Minutes' UV irradiation [1, 9]: 0.323 ng/mL
- 8OHdG concentration, 90 Minutes' standing [1, 10]: 0.153 ng/mL
- 8OHdG concentration, 90 Minutes' UV irradiation [1, 11]: 0.253 ng/mL
- 8OHdG concentration, 90 Minutes' standing [1, 12]: 0.150 ng/mL
- 8OHdG concentration, 90 Minutes' UV irradiation [1, 13]: 0.305 ng/mL
- 8OHdG concentration, 90 Minutes' standing [1, 14]: 0.173 ng/mL
- 8OHdG concentration, 90 Minutes' UV irradiation [1, 15]: 0.299 ng/mL
- evaluation in words: oxidation induction or antioxidant ability toward dG [1]: exhibited antioxidant ability

Compound: NCCCNCCCCNCCCN [Spe, spermine]
- 8OHdG concentration, 90 Minutes' standing [1, 8]: 0.140 ng/mL
- 8OHdG concentration, 90 Minutes' UV irradiation [1, 9]: 0.297 ng/mL
- 8OHdG concentration, 90 Minutes' standing [1, 10]: 0.150 ng/mL
- 8OHdG concentration, 90 Minutes' UV irradiation [1, 11]: 0.328 ng/mL
- 8OHdG concentration, 90 Minutes' standing [1, 12]: 0.154 ng/mL
- 8OHdG concentration, 90 Minutes' UV irradiation [1, 13]: 0.351 ng/mL
- 8OHdG concentration, 90 Minutes' standing [1, 14]: 0.179 ng/mL
- 8OHdG concentration, 90 Minutes' UV irradiation [1, 15]: 0.112 ng/mL
- evaluation in words: oxidation induction or antioxidant ability toward dG [1]: exhibited antioxidant ability

Compound: O=c1[nH]c(=O)c2[nH]c(=O)[nH]c2[nH]1 [uric acid]
- 8OHdG concentration, 90 Minutes' standing ([1]; 0.01 μg/ml, Table 6, dissolving fluid 0.218): 0.176 ng/mL
- 8OHdG concentration, 90 Minutes' UV irradiation ([1]; 0.01 μg/ml, Table 6, dissolving fluid 1.007): 1.064 ng/mL
- 8OHdG concentration, 90 Minutes' standing ([1]; 0.1 μg/ml, Table 6, dissolving fluid 0.218): 0.193 ng/mL
- 8OHdG concentration, 90 Minutes' UV irradiation ([1]; 0.1 μg/ml, Table 6, dissolving fluid 1.007): 0.966 ng/mL
- 8OHdG concentration, 90 Minutes' standing ([1]; 1 μg/ml, Table 6, dissolving fluid 0.218): 0.175 ng/mL
- 8OHdG concentration, 90 Minutes' UV irradiation ([1]; 1 μg/ml, Table 6, dissolving fluid 1.007): 2.369 ng/mL
- 8OHdG concentration, 90 Minutes' standing ([1]; 10 μg/ml in distilled water+0.025% FBS, Table 6, dissolving fluid 0.218): 0.147 ng/mL
- 8OHdG concentration, 90 Minutes' UV irradiation ([1]; 10 μg/ml in distilled water+0.025% FBS, Table 6, dissolving fluid 1.007): 15.619 ng/mL
- evaluation in words: oxidation induction or antioxidant ability toward dG [1]: high degree of DNA oxidation injury

Compound: O=C(OC[C@H]1O[C@@H](OC(=O)c2cc(O)c(O)c(OC(=O)c3cc(O)c(O)c(O)c3)c2)[C@H](OC(=O)c2cc(O)c(O)c(OC(=O)c3cc(O)c(O)c(O)c3)c2)[C@@H](OC(=O)c2cc(O)c(O)c(OC(=O)c3cc(O)c(O)c(O)c3)c2)[C@@H]1OC(=O)c1cc(O)c(O)c(OC(=O)c2cc(O)c(O)c(O)c2)c1)c1cc(O)c(O)c(OC(=O)c2cc(O)c(O)c(O)c2)c1 [Tan, tannic acid]
- 8OHdG concentration, 90 Minutes' standing [1, 16]: 0.84 ng/mL
- 8OHdG concentration, 90 Minutes' UV irradiation ([1]; 1 μg/ml, Table 2, distilled water 1.23): 1.04 ng/mL
- 8OHdG concentration, 90 Minutes' standing [1, 17]: 5.64 ng/mL
- 8OHdG concentration, 90 Minutes' UV irradiation ([1]; 10 μg/ml, Table 2, distilled water 1.23): 19.29 ng/mL
- 8OHdG concentration, 90 Minutes' standing ([1]; 100 μg/ml, Table 2, distilled water 0.15): 54.00 ng/mL
- 8OHdG concentration, 90 Minutes' UV irradiation ([1]; 100 μg/ml, Table 2, distilled water 1.23): 97.07 ng/mL
- evaluation in words: oxidation induction or antioxidant ability toward dG [1]: high gene injury inducing effect
